Laboratory results as given in US10913712B2, “Tetracycline compounds” (Tetraphase Pharmaceuticals, Inc., priority 2012, dated 2021).
≈ marks a conversion by molar mass, not a printed value.

Tested on: Burkholderia cenocepacia BC240 (cystic fibrosis isolate, MDR)
Assay: MIC assay
Assay type: cell-based
Details: Table 6; control compounds

Compound	MIC BC 240 [µg/mL]
CN(C)[C@@H]1C(O)=C(C(N)=O)C(=O)[C@@]2(O)C(O)=C3C(=O)c4c(O)cccc4C[C@H]3C[C@@H]12 [Sancycline, sancycline]	4 (≈ 9.65 µM)
CN(C)c1cc(NC(=O)CNC(C)(C)C)c(O)c2c1C[C@H]1C[C@H]3[C@H](N(C)C)C(O)=C(C(N)=O)C(=O)[C@@]3(O)C(O)=C1C2=O [Tigecycline, tigecycline]	16 (≈ 27.3 µM)
